Test [1] has as its system PAF Induced Bronchoconstriction. The experiment in a line: PAF Induced Bronchoconstriction Assay. The test is classed as in vivo, guinea pigs. The following applies: Cavia porcellus; 1mg/Kg iv, 1 minute pretreatment, guinea pig, PAF challenge 1.0µg/kg intravenous; percent inhibition, spread = standard error of the mean. The procedure:
Male guinea pigs (Hartley Strain, 400-500 g) were anesthetized with urethane (2 g/kg, i.p.). Each animals' trachea was cannulated and the guinea pigs were respirated using a Harvard small animal rodent respirator (3.0 cc stroke volume, 40 breaths per min.). Tracheal pressure was recorded from a cannula inserted in the trachea and connected to a Statham pressure Transducer.
The jugular vein was cannulated for administering compounds. Spontaneous breathing was arrested with succinylcholine (1.2 mg/kg, i.v.) administered 2 minutes prior to intravenous injection of platelet activating factor (PAF).
For the intravenous testing, the guinea pig is given a 5-minute pretreatment with propranolol at a dose of 0.1 mg/kg intravenously. The test compound is administered with a 1 minute pretreatment prior to intravenous challenge with PAF. The animal is then challenged with a 1.0µg/kg intravenous dose of PAF and the change in tracheal pressure is measured.
The change in tracheal pressure is determined by subtracting the steady state baseline achieved after administration of succinylcholine from the peak bronchoconstriction seen after challenge with PAF. The mean is calculated for each test compound and compared to the mean of the control animals to give the percent inhibition of bronchoconstriction. The standard error is calculated as the standard error of the mean.

The next test has as its target T1, PAF Binding (Canis lupus familiaris, UniProt A0A8I3NSH0).
T1 construct: from tissue; host or cells: washed platelets from dog blood
T1 sequence (A0A8I3NSH0 1-343): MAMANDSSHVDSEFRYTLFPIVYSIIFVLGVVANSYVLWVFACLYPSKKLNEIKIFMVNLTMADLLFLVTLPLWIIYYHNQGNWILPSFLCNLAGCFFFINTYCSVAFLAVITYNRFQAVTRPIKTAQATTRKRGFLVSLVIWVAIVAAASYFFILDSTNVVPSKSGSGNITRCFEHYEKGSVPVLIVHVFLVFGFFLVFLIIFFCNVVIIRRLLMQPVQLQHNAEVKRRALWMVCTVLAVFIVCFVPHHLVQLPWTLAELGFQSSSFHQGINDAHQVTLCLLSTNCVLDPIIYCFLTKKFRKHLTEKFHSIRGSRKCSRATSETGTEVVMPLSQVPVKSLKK
The experiment in a line: PAF binding assay (³H-PAF, dog platelets). The following applies: washed dog platelets (2 x 10⁷ platelets), 10 minutes at room temperature, read-out: Inhibition of PAF Binding IC₅₀. On the procedure:
The binding assay was done in 400 µl polyethylene microcentrifuge tubes (Beckman) containing 50 µl of an oil mixture of 2 parts of Siliconol AR200 (Serva) and 1 part of Silicone Fluid (Arthur H. Thomas). Buffer, standards, or analogs (150 µl total volume) were added to the tubes. Radiolabelled ³H-PAF (50 µl) was then added to the tubes. The reaction was started by the addition of 50 µl of dog platelets (2 x 10⁷ platelets). The tubes were capped, inverted several times to mix, and incubated for 10 minutes at room temperature. The platelets were separated from the incubation mixture by centrifuging 1 minute in a Beckman Microfuge B centrifuge. The tip of the tubes were cut off, and the platelets were washed out of the tips with 200 µl of 50% methanol (Burdick and Jackson). Aquasol (NEN, 10 ml) was added and the radioactivity in the samples was determined using an LS 8100 Beckman liquid scintillation counter linked to a Techtran tape recorder. Data was processed through an in-house computer system. Alternatively, radioactivity was determined using a Searle Mark III liquid scintillation counter linked to a Iso-Data microprocessor.
Blood was collected from anesthesized or unanesthesized dogs into 50 ml plastic centrifuge tubes containing 3.8% sodium citrate as the anticoagulant (1 volume of citrate/9 volumes of blood). The red cells were removed by centrifugation for 15 minutes at 600 rpm (100-125 g) at room temperature. An aliquot of the supernatant platelet rich plasma (PRP) was saved for cell counting and the remainder was acidified to pH 6.5 with 0.15 M citric acid. The platelet pellet was obtained after a 10 minute centrifugation at 2000 rpm (1000 g) at room temperature. Washed platelets were prepared by resuspending the platelet pellet once with PBS containing 1 mM of EDTA, centrifuging as noted, and then resuspending the platelets in 0.1% of BSA/PBS. An aliquot of the washed platelets was counted. Platelets used for binding assays were diluted to 2 x 10⁷ platelets/assay tube (4 x 10⁸ platelets/ml). Platelet counting was done using a Royco Cell-Crit 921.

Test [2] addresses T2, Thromboxane Synthase (TXA₂ syn.) (Homo sapiens, UniProt P24557).
T2 construct: using microsomal fractions from human platelets as enzyme source; from tissue; host or cells: microsomal fraction of human platelets
T2 sequence (P24557 1-533): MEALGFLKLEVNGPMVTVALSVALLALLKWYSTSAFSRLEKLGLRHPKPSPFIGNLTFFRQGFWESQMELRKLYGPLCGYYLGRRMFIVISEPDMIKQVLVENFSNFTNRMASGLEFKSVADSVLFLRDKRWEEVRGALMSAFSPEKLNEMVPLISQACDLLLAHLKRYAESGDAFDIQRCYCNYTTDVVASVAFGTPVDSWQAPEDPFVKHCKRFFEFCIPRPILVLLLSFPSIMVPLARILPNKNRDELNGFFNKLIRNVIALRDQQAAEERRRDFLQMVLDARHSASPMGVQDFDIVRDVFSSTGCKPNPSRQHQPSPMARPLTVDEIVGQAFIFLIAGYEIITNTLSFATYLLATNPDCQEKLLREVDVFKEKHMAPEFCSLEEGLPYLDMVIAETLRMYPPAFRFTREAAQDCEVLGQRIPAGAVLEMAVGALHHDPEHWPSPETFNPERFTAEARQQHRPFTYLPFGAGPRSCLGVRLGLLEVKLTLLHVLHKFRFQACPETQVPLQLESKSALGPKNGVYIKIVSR
The experiment in a line: TXA₂ Synthesis Inhibition (microsomal fractions from human platelets). The following applies: human platelet microsomes, ¹⁴C-PGH₂ 10µM, 22° for 2 minutes; read-out: Inhibition of TXA₂ Synthetase IC₅₀. The format is biochemical. The procedure:
Thromboxane Synthase (TXA₂ syn.) inhibitory activity is measured by following the conversion of […] using microsomal fractions from human platelets as enzyme source. In the aqueous incubation medium, the TXA₂ decomposes rapidly into TXB₂. The amount of TXA₂ syn, is adjusted so that under the conditions of the assay approximately 80-90% of the substrate, PGH₂, is converted to product in control tubes. To prepare ¹⁴C-PGH₂, ¹⁴C-AA(50-60mCi/mmole) is incubated with sheep seminal vesicular gland microsomes for 1.5 min, at 37° and then the ¹⁴C-PGH₂ is extracted with diethylether, purified on columns of Sephadex LH-20 or silicic acid, and stored in acetone at -70°C. Incubations are done as follows, Sufficient ¹⁴C-PGH₂ to yield a final substrate concentration of 10µM (about 30,000 cpm) is added to the incubation tubes and then the acetone is removed under nitrogen. The tubes are placed in an ice bath and then 215 µl of ice cold phosphate buffered saline, 10 µl of ethanol (control) or of test drug in ethanol and 25 µl of the microsomal suspension are added with mixing in that order as rapidly as possible. The tubes are incubated at 22° for 2 minutes, the reaction is stopped and then the radioactive products and the unconverted PGH₂ are extracted and analyzed by thin layer chromatography. The amount of ¹⁴C-PGH₂ converted to products is analyzed by thin layer chromatography. The amount of ¹⁴C-PGH₂ converted to products was used as a measure of TXA₂ synthase activity. Inhibitors were tested initially at a concentration of 100 µM. IC₅₀ values were calculated by linear regression analysis of successive 10 fold dilutions of the test compound concentration.

Among the data in patent EP0298466A2, “Substituted alkene carboxylic acid amides and derivatives” (F. HOFFMANN-LA ROCHE AG, priority 1987, dated 1989) are inhibition in vivo and IC50 values, retold here.

The term inhibition in vivo denotes the change of the read-out against control, counted positive when it falls.

As to `CCCCCC1=C(/C=C/C(=O)N[C@H](C)CCCc2cccnc2)Cc2cc(OC)ccc21` [[R-(E)]-3-(6-methoxy-3-pentylindene-2-yl)-N-[1-methyl-4-(3-pyridinyl)butyl]-2-propenamide], the inhibition in vivo at 1 mg/kg in test [1] was determined as 96%. In addition, the IC50 at PAF Binding came to 33 nM.

Regarding `O=C(CCCCC=C(c1ccccc1)c1ccccc1)NCCCCc1cccnc1` [7,7-Diphenyl-N-[4-(3-pyridinyl)butyl]-6-heptenamide], the IC50 in test [2] was 100 to 10000 nM.

Turning to `CCCCc1c(/C=C/C(=O)N[C@H](C)CCCc2cccnc2)ccc2c(OC)cccc12` [[R-(E)]-3-(1-Butyl-5-methoxy-2-naphthalenyl)-N-[1-methyl-4-(3-pyridinyl)butyl]-2-propenamide], the inhibition in vivo at 1 mg/kg in test [1] stood at 50%. In addition, at PAF Binding, the IC50 was 6 nM.

Regarding `COc1cccc(-c2c(/C=C/C(=O)NCCCCc3cccnc3)ccc3ccc(OC)cc23)c1` [(E)-3-[7-methoxy-1-(3-methoxyphenyl)-2-naphthalenyl]-N-[4-(3-pyridinyl)butyl]-2-propenamide], the inhibition in vivo at 1 mg/kg in test [1] was found to be 62%. Also, the IC50 at PAF Binding stood at 8 nM.

`CCCCCc1c(/C=C/C(=O)N[C@H](C)CCCc2cccnc2)sc2cc(OC)ccc12` [[R-(E)]-3-(6-Methoxy-3-pentylbenzo-[b]thien-2-yl)-N-[1-methyl-4-(3-pyridinyl)butyl]-2-propenamide]: in test [1], the inhibition in vivo at 1 mg/kg amounted to 98%. In addition, the IC50 on PAF Binding worked out at 24 nM.

For `CCCCCc1c(/C=C/C(=O)N[C@H](C)CCCc2cccnc2)oc2cc(OC)ccc12` [[R-(E)]-3-(6-Methoxy-3-pentylbenzofuran-2-yl)-N-[1-methyl-4-(3-pyridinyl)butyl]-2-propenamide], the inhibition in vivo at 1 mg/kg in test [1] was determined as 89%.

For `O=C(CCCCCC=C(c1ccccc1)c1ccccc1)NCCCCc1cccnc1` [8,8-Diphenyl-N-[4-(3-pyridinyl)butyl]-7-octenamide], the IC50 in test [2] fell in the range of 100 to 1000 nM.

As for `O=C(C=C(c1ccccc1)c1ccccc1)NCCCCc1cccnc1` [3,3-Diphenyl-N-[4-(3-pyridinyl)butyl]-2-propenamide], the IC50 in test [2] was in the range of 100 to 1000 nM.

On to `O=C(CCC=C(c1ccccc1)c1ccccc1)NCCCCc1cccnc1` [5,5-Diphenyl-N-[4-(3-pyridinyl)butyl]-4-pentenamide], for which the IC50 in test [2] fell in the range of 100 to 1000 nM.

With `O=C(CC=C(c1ccccc1)c1ccccc1)NCCCCc1cccnc1` [4,4-Diphenyl-N-[4-(3-pyridinyl)butyl]-3-butenamide], the IC50 in test [2] came out at 1000 nM.

With `CCCCc1c(/C=C/C(=O)N[C@H](C)CCCc2cccnc2)ccc2cc(OC)ccc12` [[R-(E)]-3-(1-Butyl-6-methoxy-2-naphthalenyl)-N-[1-methyl-4-(3-pyridinyl)butyl]-2-propenamide], the inhibition in vivo at 1 mg/kg in test [1] came out at 95 ± 1%. Also, the IC50 on PAF Binding amounted to 7 nM.

Consider `O=C(CCC=C(c1ccc(F)cc1)c1ccc(F)cc1)NCCCCc1cccnc1` [5,5-bis(4-fluorophenyl)-N-[4-(3-pyridinyl)butyl]-4-pentenamide], for which the IC50 in test [2] lay in the range of 1000 to 10000 nM.

In the case of `O=C(CCCC=C(c1ccccc1)c1ccccc1)NCCCCc1cccnc1` [6,6-Diphenyl-N-[4-(3-pyridinyl)butyl]-5-hexenamide], the IC50 in test [2] came to 100 nM.

Consider `CCCCc1c(/C=C/C(=O)N[C@H](C)CCCc2cccnc2)cc(OC)c2ccccc12` [[R-(E)]-3-(1-Butyl-4-methoxy-2-naphthalenyl)-N-[1-methyl-4-(3-pyridinyl)butyl]-2-propenamide], for which the inhibition in vivo at 1 mg/kg in test [1] came to 90%. In addition, the IC50 at PAF Binding turned out to be 1 nM.

Consider `COc1ccc(C(=CCCC(=O)NCCCCc2cccnc2)c2ccc(OC)cc2)cc1` [5,5-bis(4-methoxyphenyl)-N-[4-(3-pyridinyl)butyl]-4-pentenamide], for which, in test [2], the IC50 is 1000 to 10000 nM.

Regarding `CCCCC1=C(/C=C/C(=O)N[C@H](C)CCCc2cccnc2)CCc2cc(OC)ccc21` [[R-(E)]-3-(1-Butyl-3,4-dihydro-6-methoxy-2-naphthalenyl)-N-[1-methyl-4-(3-pyridinyl)butyl]-2-propenamide], the inhibition in vivo at 1 mg/kg in test [1] is 94 ± 2%.

Regarding `COc1ccc(-c2c(/C=C/C(=O)N[C@H](C)CCCc3cccnc3)ccc3cc(OC)ccc23)cc1` [[R-(E)]-3-[6-Methoxy-1-(4-methoxyphenyl)-2-naphthalenyl]-N-[1-methyl-4-(3-pyridinyl)butyl]-2-propenamide], the inhibition in vivo at 1 mg/kg in test [1] was determined as 92%. Moreover, on PAF Binding, the IC50 turned out to be 55 nM.

For `CCCCc1c(/C=C/C(=O)N[C@H](C)CCCc2cccnc2)cc(OC)c2ccc(OC)cc12` [[R-(E)]-3-(1-Butyl-4,7-dimethoxy-2-naphthalenyl)-N-[1-methyl-4-(3-pyridinyl)butyl]-2-propenamide], the inhibition in vivo at 1 mg/kg in test [1] came to 80%. The IC50 on PAF Binding came out at 3 nM.

Consider `COc1ccc(C2=C(/C=C/C(=O)N[C@H](C)CCCc3cccnc3)CCc3cc(OC)ccc32)cc1` [[R-(E)]-3-[3,4-Dihydro-6-methoxy-1-(4-methoxyphenyl)-2-naphthalenyl]-N-[1-methyl-4-(3-pyridinyl)butyl]-2-propenamide], for which the inhibition in vivo at 1 mg/kg in test [1] was found to be 95 ± 2%. Also, the IC50 at PAF Binding was 30 nM.

Turning to `CCCCc1c(/C=C/C(=O)N[C@H](C)CCCc2cccnc2)ccc2ccc(OC)cc12` [[R-(E)]-3-(1-Butyl-7-methoxy-2-naphthalenyl)-N-[1-methyl-4-(3-pyridinyl)butyl]-2-propenamide], the IC50 at PAF Binding is 15 nM.
